Where “and” joins values, the source holds several entries; their conditions need not be identical. Equal entries are not always repeated.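 1) Cells in 96-well plates. 2) Compound, 48 h, 5 concentrations. 3) Linear interpolation between surrounding doses. 4) Unreached endpoint = highest concentration. GI50 marks 50% less growth. TGI: concentration producing complete growth inhibition.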
Tests used:
Experiment in all cases: inhibition of tumour cell growth, NCI panel, 48 h
NCI-H23 lung = test system: NCI-H23 lung
TK-10 renal = test system: TK-10 renal
HCT-116 colon = test system: HCT-116 colon
HT29 colon = test system: HT29 colon
UACC-257 melanoma = test system: UACC-257 melanoma
IGROV1 ovarian = test system: IGROV1 ovarian
SNB-75 CNS = test system: SNB-75 CNS
OVCAR-5 ovarian = test system: OVCAR-5 ovarian
MDA-MB-435 = test system: MDA-MB-435
PC-3 prostate = test system: PC-3 prostate

Row | Structure (SMILES) | TGI (NCI-H23 lung) | TGI (TK-10 renal) [µM] | TGI (HCT-116 colon) | TGI (HT29 colon) | TGI (UACC-257 melanoma) | TGI (IGROV1 ovarian) | TGI (SNB-75 CNS) | TGI (OVCAR-5 ovarian) [µM] | GI50 (NCI-H23 lung) | GI50 (TK-10 renal) [µM] | GI50 (HT29 colon) | GI50 (UACC-257 melanoma) | GI50 (IGROV1 ovarian) | GI50 (SNB-75 CNS) | GI50 (MDA-MB-435) | TGI (MDA-MB-435) | GI50 (OVCAR-5 ovarian) [µM] | GI50 (PC-3 prostate) | TGI (PC-3 prostate) | GI50 (HCT-116 colon)
1 | O=C(CC1=Nc2nnc(-c3nnc4n3C(=O)C(CC(=O)C3CC3)=N4)n2C1=O)C1CC1 | > 100 µM | > 100 | > 100 µM | > 100 µM | > 100 µM | > 100 µM | > 100 µM | > 100 |  |  |  |  |  |  |  |  |  |  |  | 
2 | COc1ccc(-c2cc(-c3ccccc3)nc(NCCNc3ccnc4cc(Cl)ccc34)n2)cc1 | 3.7 µM | 3.44 |  | 3.43 µM | 3.93 µM | 3.18 µM | 3.05 µM | 3.3 | 1.84 µM | 1.82 | 1.72 µM | 1.92 µM | 1.46 µM | 1.6 µM | 1.47 µM | 3.01 µM | 1.76 |  |  | 
3 | OCC(O)C(O)C(O)C(O)c1nn[nH]n1 (stereo not drawn) | > 100 µM |  | > 100 µM | > 100 µM |  | > 100 µM | 88.1 µM and > 100 µM | > 100 |  |  |  |  |  |  |  |  |  |  |  | 
4 | NNC(=O)N/N=C1\CN(c2ccc(Cl)cc2Cl)C(=O)C(=O)C1c1nc2ccccc2o1 (stereo not drawn) | > 100 µM |  | > 100 µM | > 100 µM | > 100 µM | > 100 µM | > 100 µM | > 100 |  |  |  |  |  |  |  |  |  |  |  | 
5 | Oc1ccccc1C=Nc1nc(OCc2ccccc2)nc2[nH]ncc12 | 79.7 µM | 32.8 | 41.9 µM | 49.3 µM | > 100 µM | > 100 µM |  | 83.9 | 15.4 µM | 10.6 | 22.5 µM | 34.2 µM | 34.8 µM |  | 20.7 µM | 44.8 µM | 27.2 | 16.8 µM | 51.4 µM | 18.4 µM
6 | COc1ccc(C(=O)O/N=C2/CCCCC2CN(C)C)cc1 (stereo not drawn) | > 100 µM | > 100 | > 100 µM | > 100 µM | > 100 µM | > 100 µM | > 100 µM | > 100 |  |  |  |  |  |  |  |  |  |  |  | 
7 | COc1cc(CCc2ccc(OC(C)=O)cc2)cc(OC)c1OC |  | > 100 | > 100 µM | > 100 µM | > 100 µM | > 100 µM | > 100 µM | > 100 |  |  |  |  |  |  |  |  |  |  |  | 
8 | COc1cc(N(CCC#N)CCC#N)ccc1/C(N=Nc1ccc(C(=O)O)cc1)=N/NC(=O)c1cc(Br)ccc1O | > 150 µg/mL |  | > 150 µg/mL | > 150 µg/mL | > 150 µg/mL | > 150 µg/mL | 130 µg/mL |  | > 150 µg/mL |  | 58.5 µg/mL | > 150 µg/mL | 78.1 µg/mL | 57.2 µg/mL | > 150 µg/mL | > 150 µg/mL |  | 81 µg/mL | > 150 µg/mL | 62.8 µg/mL
9 | COc1cc2cc3c(c(O)c2c(O)c1-c1c(OC)cc2cc4c(c(O)c2c1O)C(=O)O[C@H](C)C4)C(=O)O[C@H](C)C3 | > 100 µM | > 100 | 43 µM | > 100 µM | 48.8 µM |  |  | > 100 | 32.1 µM | 60.3 | 37.5 µM | 22.9 µM |  |  | 17.8 µM | 33.8 µM | 94.2 | 35.8 µM | > 100 µM | 20.3 µM
10 | O=C(/C(=C/c1ccc(O)cc1)c1ccccc1)c1ccccc1 | 30.7 µM | 48.5 | 31.5 µM | 32.1 µM | 32.9 µM | 38.3 µM | 42.5 µM | 32 |  |  |  |  |  |  |  |  |  |  |  | 
11 | COCC1N=C(c2cc(OC)c(OC)c(OC)c2-c2cc3c(cc2[C@H](C)O)OCO3)O[C@H]1c1ccccc1 (stereo partly drawn) | > 100 µM | > 100 | > 100 µM | > 100 µM |  | > 100 µM | > 100 µM |  |  |  |  |  |  |  |  |  |  |  |  | 
12 | Nc1nc(=S)[nH]c(C(=O)Nc2nccs2)c1-c1ccccc1 | > 100 µM | > 100 | > 100 µM | > 100 µM | > 100 µM | > 100 µM | > 100 µM | > 100 |  |  |  |  |  |  |  |  |  |  |  | 
13 | O=c1[nH]c2ccc([N+](=O)[O-])cc2nc1/C(=N/Nc1ccccc1)C(O)c1ccco1 (stereo not drawn) | > 100 µM | > 100 | > 100 µM | > 100 µM | > 100 µM | > 100 µM | > 100 µM | > 100 |  |  |  |  |  |  |  |  |  |  |  | 
14 | Nc1ncc(C2[C@H](CNC(=O)c3cc(Br)c[nH]3)C(CNC(=O)c3cc(Br)c[nH]3)[C@@H]2c2cnc(N)[nH]2)[nH]1 (stereo partly drawn) | > 50 µM | > 50 | > 50 µM |  | > 50 µM | > 50 µM |  | > 50 | > 50 µM | > 50 |  | > 50 µM | > 50 µM |  | > 50 µM | > 50 µM | > 50 | > 50 µM | > 50 µM | > 50 µM
15 | Nc1ccc(C(=O)/C=C/c2ccccc2O)cc1 | > 100 µM | > 100 | > 100 µM | > 100 µM | > 100 µM | > 100 µM | > 100 µM | > 100 |  |  |  |  |  |  |  |  |  |  |  | 
16 | N#CCC1(n2cc(-c3ncnc4[nH]ccc34)cn2)CN(C2CCN(C(=O)c3ccnc(C(F)(F)F)c3F)CC2)C1 | > 100 µM | > 100 |  | > 100 µM | > 100 µM | > 100 µM | > 100 µM | > 100 | > 100 µM | 55.3 | > 100 µM | > 100 µM | > 100 µM | 25.7 µM | 92.1 µM | > 100 µM | > 100 | > 100 µM | > 100 µM | 
17 | [Cl-].[Gd+3].[O-]/N=C(\c1ccccc1)c1ccccn1.[O-]/N=C(\c1ccccc1)c1ccccn1.[O-]/N=C(\c1ccccc1)c1ccccn1 | > 100 µM | > 100 | > 100 µM | > 100 µM | > 100 µM | > 100 µM | 71.9 µM | > 100 | > 100 µM | 34.9 | 44.9 µM | 86.5 µM | 81.4 µM | 17.5 µM |  |  | 67.7 |  |  | 49.3 µM
18 | O=C(c1ccccc1)C(Br)C(Br)c1ccccc1 (stereo not drawn) | 23.8 µM | 3.01 | 3.32 µM |  | 8.04 µM | 12.2 µM | 25.6 µM | 27.7 | 10.4 µM | 1.59 |  | 3.2 µM | 2.94 µM | 12.1 µM | 2.91 µM | 11.2 µM | 14.5 | 18.3 µM | 33.4 µM | 1.73 µM

From PubChem BioAssay (NCI)
